Data as given in PubChem BioAssay (NCI).
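How tested: cells in 96-well plates exposed to compound for 48 hours at five concentrations. The concentration for full growth arrest is given as TGI.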

How the values were obtained:
Assay in all cases: inhibition of tumour cell growth, NCI panel, 48 h
786-0 renal = tested on: 786-0 renal
A498 renal = tested on: A498 renal
A549 NSCLC = tested on: A549 NSCLC
ACHN renal = tested on: ACHN renal
CAKI-1 renal = tested on: CAKI-1 renal
CCRF-CEM leukemia = tested on: CCRF-CEM leukemia
COLO 205 colon = tested on: COLO 205 colon
DLD-1 colon = tested on: DLD-1 colon
DMS 114 small cell lung = tested on: DMS 114 small cell lung
DMS 273 small cell lung = tested on: DMS 273 small cell lung
EKVX NSCLC = tested on: EKVX NSCLC
HCC-2998 colon = tested on: HCC-2998 colon
HCT-116 colon = tested on: HCT-116 colon
HCT-15 colon = tested on: HCT-15 colon
HL-60(TB) leukemia = tested on: HL-60(TB) leukemia
HOP-62 NSCLC = tested on: HOP-62 NSCLC
HOP-92 NSCLC = tested on: HOP-92 NSCLC
HT29 colon = tested on: HT29 colon
IGROV1 ovarian = tested on: IGROV1 ovarian
K-562 leukemia = tested on: K-562 leukemia
KM12 colon = tested on: KM12 colon
KM20L2 colon = tested on: KM20L2 colon
LOX IMVI melanoma = tested on: LOX IMVI melanoma
LXFL 529 NSCLC = tested on: LXFL 529 NSCLC
M14 melanoma = tested on: M14 melanoma
M19-MEL melanoma = tested on: M19-MEL melanoma
MALME-3M melanoma = tested on: MALME-3M melanoma
MOLT-4 leukemia = tested on: MOLT-4 leukemia
NCI-H226 lung = tested on: NCI-H226 lung
NCI-H23 lung = tested on: NCI-H23 lung
NCI-H460 lung = tested on: NCI-H460 lung
NCI-H522 lung = tested on: NCI-H522 lung
OVCAR-3 ovarian = tested on: OVCAR-3 ovarian
OVCAR-4 ovarian = tested on: OVCAR-4 ovarian
OVCAR-5 ovarian = tested on: OVCAR-5 ovarian
OVCAR-8 ovarian = tested on: OVCAR-8 ovarian
RPMI-8226 leukemia = tested on: RPMI-8226 leukemia
RXF 393 renal = tested on: RXF 393 renal
RXF-631 renal = tested on: RXF-631 renal
SF-268 CNS = tested on: SF-268 CNS
SF-295 CNS = tested on: SF-295 CNS
SF-539 CNS = tested on: SF-539 CNS
SK-MEL-2 melanoma = tested on: SK-MEL-2 melanoma
SK-OV-3 ovarian = tested on: SK-OV-3 ovarian
SN12C renal = tested on: SN12C renal
SNB-19 CNS = tested on: SNB-19 CNS
SNB-75 CNS = tested on: SNB-75 CNS
SNB-78 CNS = tested on: SNB-78 CNS
SR leukemia = tested on: SR leukemia
SW-620 colon = tested on: SW-620 colon
TK-10 renal = tested on: TK-10 renal
U251 CNS = tested on: U251 CNS
UACC-257 melanoma = tested on: UACC-257 melanoma
UACC-62 melanoma = tested on: UACC-62 melanoma
UO-31 renal = tested on: UO-31 renal
HOP-18 NSCLC = tested on: HOP-18 NSCLC
SK-MEL-28 melanoma = tested on: SK-MEL-28 melanoma
SK-MEL-5 melanoma = tested on: SK-MEL-5 melanoma
XF 498 CNS = tested on: XF 498 CNS

Measured: TGI

Cc1ccccc1NC(=O)C(=O)CC(=O)c1sc(-n2nc(-c3ccccc3)cc2-c2ccccc2)nc1C
not listed: HOP-18 NSCLC | SK-MEL-28 melanoma | SK-MEL-5 melanoma | XF 498 CNS
> 100 µM: all other assays above

Clc1ccc(/C=C/c2csnn2)cc1
not listed: RPMI-8226 leukemia | RXF-631 renal | SR leukemia
> 100 µM: all other assays above

NC(=O)N1N=C2c3ccccc3OC[C@H]2[C@@H]1c1ccccc1
72.1 µM: OVCAR-5 ovarian
> 89.3 µM: RPMI-8226 leukemia
61.7 µM: HL-60(TB) leukemia
> 95.3 µM: SNB-78 CNS
19.1 µM: SF-539 CNS
> 37.1 µM: HCC-2998 colon
60.2 µM: NCI-H460 lung
12.7 µM: NCI-H522 lung
16.6 µM: KM12 colon
49.8 µM: KM20L2 colon
97.2 µM: MOLT-4 leukemia
5.59 µM: M14 melanoma
34.2 µM: DMS 114 small cell lung
19.9 µM: UACC-62 melanoma
> 76.3 µM: OVCAR-3 ovarian
> 81.6 µM: HCT-15 colon
> 92.4 µM: NCI-H23 lung
8.7 µM: RXF 393 renal
27.2 µM: OVCAR-8 ovarian
> 80.4 µM: SF-268 CNS
51.5 µM: COLO 205 colon
> 35.7 µM: SF-295 CNS
74.7 µM: NCI-H226 lung
> 81.5 µM: A498 renal
56 µM: SR leukemia
> 91.7 µM: SNB-75 CNS
28.5 µM: U251 CNS
67.6 µM: HT29 colon
> 39.2 µM: HCT-116 colon
not listed: RXF-631 renal | SK-MEL-5 melanoma
> 100 µM: all other assays above

CN(C)CCC(/C=C/c1ccccc1)=N\Nc1c(F)c(F)c(F)c(F)c1F
37.8 µM: HL-60(TB) leukemia
28.8 µM: SK-MEL-5 melanoma
not listed: CAKI-1 renal | HCC-2998 colon | HOP-92 NSCLC | KM20L2 colon | NCI-H226 lung | RXF-631 renal | XF 498 CNS
> 100 µM: all other assays above
